Test results from paper PMC12516686, “Design of 2‑Aminobenzothiazole Derivatives Targeting Trypanosomatid PTR1 by a Multidisciplinary Fragment Hybridization Approach” (Journal of Medicinal Chemistry, 2025).
Several values for one entry are separate records, joined by “and”; a condition that tells them apart may be missing. Equal entries are not always repeated. Where two headings read alike, the source gives them in different places.

Key:
[1] = target: T1, LmPTR1 (Leishmania major, UniProt Q01782); assay: LmPTR1 indirect (cytochrome c-coupled) enzyme assay; format: biochemical; conditions: for IC50: indirect assay, triplicate, SD within ± 10% of the value
T1 sequence (Q01782 1-288): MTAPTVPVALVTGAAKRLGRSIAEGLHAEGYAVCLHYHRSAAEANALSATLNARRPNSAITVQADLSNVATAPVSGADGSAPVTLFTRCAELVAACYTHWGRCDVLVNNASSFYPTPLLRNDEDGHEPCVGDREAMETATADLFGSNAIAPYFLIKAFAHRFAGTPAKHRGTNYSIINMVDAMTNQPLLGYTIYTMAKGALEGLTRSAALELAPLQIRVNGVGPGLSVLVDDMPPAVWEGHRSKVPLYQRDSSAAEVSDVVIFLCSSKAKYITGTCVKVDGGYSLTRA
Procedure: The in vitro assays used in the current study were based on those reported in the literature. As PTR1 enzymes use dihydrobiopterin (H2B) as a substrate and also require NADPH for the reaction, the reduction of H2B to tetrahydrobiopterin by PTR1 is nonenzymatically linked with the reduction of cytochrome c in this assay, which is detected at 550 nm. The formation of cyt c Fe^2+ results in an increase in the photometric readout. TbPTR1 and LmPTR1 activity was assayed in a buffer containing 20 mM sodium citrate (pH 6.0). The final reaction mixture contained the test compound at a range of concentrations and TbPTR1/LmPTR1 (6.0 nM/12 nM), H2B (0.3 μM/3 μM), cytochrome c (100 μM/100 μM), and NADPH (500 μM/500 μM). The final assay volume was 50 μL in 384-well clear plates (Greiner Bio-One, 781101). Compound screening was performed by the addition of the compound to the assay plates (in 100% DMSO), followed by the addition of 45 μL Reaction Mix (enzyme, H2B cytochrome c in 20 mM sodium citrate buffer). A pre-read was made at 550 nm using an EnVision Multilabel Reader 2103 (PerkinElmer Inc., US), followed by incubation of the assay plates at 30 °C for 10 min. The reaction was initiated by the addition of 5 μL of NADPH (5 mM in ultrapure water) followed by kinetically reading the assay plates at 550 nm using the EnVision Multilabel Reader at 10, 20, 30, 40, and 50 min. The slope of each assay well was calculated. The screening data were analyzed using ActivityBase (IDBS), and for outlier elimination in the control wells, the 3-σ method was applied. Based on the slope, the data were normalized to the positive control methotrexate for TbPTR1/LmPTR1 (1 μM/50 μM, yielding 100% inhibition) and negative controls (1% DMSO, yielding 0% inhibition), and % inhibition was calculated for all samples. The measurement at time 0 min was used to flag optically interfering samples. Each compound was tested in triplicate, and the pIC50 value, standard deviation, Hill slope, and minimum and maximum signals for each dose–response curve were obtained using a 4-parameter logistic fit in the XE module of Activity Base (IDBS), as also reported previously. ,

[2] = target: T2, CYP2C9 (Homo sapiens, UniProt P11712); assay: Cytochrome P450 assay (P450-Glo), isoform 2C9; format: in vitro ADME
T2 construct: purchased Promega; host or cells: baculovirus-infected insect cells
Description: (§1) 3A4. The Promega P450-Glo assay platform was used with microsomal preparations of
(§2) cytochrome P450s from baculovirus-infected insect cells. […]

[3] = target: T3, CYP3A4 (Homo sapiens, UniProt P08684); assay: Cytochrome P450 assay (P450-Glo), isoform 3A4; format: in vitro ADME
T3 construct: purchased Promega; host or cells: baculovirus-infected insect cells
Description: as §1, §2

[4] = target: T4, CYP2C19 (Homo sapiens, UniProt P33261); assay: Cytochrome P450 assay (P450-Glo), isoform 2C19; format: in vitro ADME
T4 construct: purchased Promega; host or cells: baculovirus-infected insect cells
Description: as §1, §2

[5] = target: T5, hERG (Homo sapiens, UniProt Q12809); assay: hERG liability assay
T5 construct: purchased Invitrogen

[6] = Cytotoxicity assay (MTT) on THP-1-derived macrophages; format: cell-based, Human; conditions: human, THP-1-derived macrophages
Procedure: Human leukemia cell line THP-1 (ATCC TIB202) cells were cultured in RPMI-1640 medium supplemented with 10% heat-inactivated fetal bovine serum (FBS), 2 mM L-glutamine, 100 IU/mL penicillin/streptomycin, and 20 mM HEPES. The cell line was maintained in a humidified incubator at 37 °C with 5% CO2. Subcultures were performed every 3 days in 20 mL of media at a concentration of 2 × 10^5 cells/mL in a T75 flask. All cell culture reagents were purchased from Lonza Bioscience (Morrisville, NC).
The cytotoxicity of the compounds on THP-1-derived macrophages was assessed using the colorimetric MTT assay (3-(4,5-dimethylthiazol-2-yl)-2,5-diphenyl tetrazolium bromide) as described elsewhere. THP-1 cells were suspended in RPMI complete medium at a density of 1 × 10^6 cells/mL, and 100 μL/well was seeded in a 96-well plate. The cells were differentiated into macrophages by adding 40 ng/mL of phorbol-myristate 13-acetate (PMA, Sigma, Saint Louis, MI, USA) for 24 h, followed by replacement with fresh medium for another 24 h. Subsequently, the cells were incubated with 100 μL of compounds, ranging from 100 to 12.5 μM, diluted in RPMI complete medium. Each condition was tested in triplicate. After 72 h of incubation at 37 °C with 5% CO2, the medium was removed, and 200 μL of 0.5 mg/mL MTT solution diluted in RPMI was added. The plates were incubated for an additional 4 h, after which 160 μL of the media was removed and replaced with 160 μL of 2-propanol. Absorbance was read at 570 nm using a Synergy 2 Multi-Mode Reader (Biotek, Winooski, VT, USA). Cytotoxicity was evaluated by presenting the CC50 (the concentration of the drug that reduces cell viability by 50%) interval or by determining the CC50 value through nonlinear regression analysis using GraphPad Prism version 8.1.1 for Windows (GraphPad Software, San Diego, CA, USA). Results represent the average of at least three independent experiments.

[7] = tested on: 786-O cell line; assay: Mitochondrial toxicity (MitoTracker Red uptake, high content imaging); format: cell-based; conditions: for IC50: read-out: mitotox. IC50
Description: Mitochondrial toxicity caused by the synthesized compounds. Uptake of Mito-
Tracker Red (chloromethyl-X-rosamine) to the 786-O cell line was detected with high content
imaging. […]

[8] = lower limit of CC50 interval, read-out: THP1 CC50 lower limit
[9] = upper limit of CC50 interval, read-out: THP1 CC50 upper limit
[10] = cytotoxic concentration for THP1 cells, read-out: CC50 THP1

T3 sequence (P08684 whole entry, canonical isoform): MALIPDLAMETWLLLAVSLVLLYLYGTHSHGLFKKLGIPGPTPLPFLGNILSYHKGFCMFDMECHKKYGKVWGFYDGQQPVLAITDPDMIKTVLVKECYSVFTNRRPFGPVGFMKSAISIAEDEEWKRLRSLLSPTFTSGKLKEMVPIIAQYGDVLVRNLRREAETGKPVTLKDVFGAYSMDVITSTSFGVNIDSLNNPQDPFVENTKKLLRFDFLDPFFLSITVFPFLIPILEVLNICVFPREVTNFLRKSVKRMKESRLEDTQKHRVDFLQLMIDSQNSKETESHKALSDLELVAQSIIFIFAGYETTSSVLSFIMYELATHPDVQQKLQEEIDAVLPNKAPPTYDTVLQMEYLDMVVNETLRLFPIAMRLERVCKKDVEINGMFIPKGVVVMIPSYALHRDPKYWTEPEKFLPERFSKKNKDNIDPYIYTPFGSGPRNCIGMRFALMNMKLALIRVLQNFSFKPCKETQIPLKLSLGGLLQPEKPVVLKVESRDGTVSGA
T5 sequence (Q12809 whole entry): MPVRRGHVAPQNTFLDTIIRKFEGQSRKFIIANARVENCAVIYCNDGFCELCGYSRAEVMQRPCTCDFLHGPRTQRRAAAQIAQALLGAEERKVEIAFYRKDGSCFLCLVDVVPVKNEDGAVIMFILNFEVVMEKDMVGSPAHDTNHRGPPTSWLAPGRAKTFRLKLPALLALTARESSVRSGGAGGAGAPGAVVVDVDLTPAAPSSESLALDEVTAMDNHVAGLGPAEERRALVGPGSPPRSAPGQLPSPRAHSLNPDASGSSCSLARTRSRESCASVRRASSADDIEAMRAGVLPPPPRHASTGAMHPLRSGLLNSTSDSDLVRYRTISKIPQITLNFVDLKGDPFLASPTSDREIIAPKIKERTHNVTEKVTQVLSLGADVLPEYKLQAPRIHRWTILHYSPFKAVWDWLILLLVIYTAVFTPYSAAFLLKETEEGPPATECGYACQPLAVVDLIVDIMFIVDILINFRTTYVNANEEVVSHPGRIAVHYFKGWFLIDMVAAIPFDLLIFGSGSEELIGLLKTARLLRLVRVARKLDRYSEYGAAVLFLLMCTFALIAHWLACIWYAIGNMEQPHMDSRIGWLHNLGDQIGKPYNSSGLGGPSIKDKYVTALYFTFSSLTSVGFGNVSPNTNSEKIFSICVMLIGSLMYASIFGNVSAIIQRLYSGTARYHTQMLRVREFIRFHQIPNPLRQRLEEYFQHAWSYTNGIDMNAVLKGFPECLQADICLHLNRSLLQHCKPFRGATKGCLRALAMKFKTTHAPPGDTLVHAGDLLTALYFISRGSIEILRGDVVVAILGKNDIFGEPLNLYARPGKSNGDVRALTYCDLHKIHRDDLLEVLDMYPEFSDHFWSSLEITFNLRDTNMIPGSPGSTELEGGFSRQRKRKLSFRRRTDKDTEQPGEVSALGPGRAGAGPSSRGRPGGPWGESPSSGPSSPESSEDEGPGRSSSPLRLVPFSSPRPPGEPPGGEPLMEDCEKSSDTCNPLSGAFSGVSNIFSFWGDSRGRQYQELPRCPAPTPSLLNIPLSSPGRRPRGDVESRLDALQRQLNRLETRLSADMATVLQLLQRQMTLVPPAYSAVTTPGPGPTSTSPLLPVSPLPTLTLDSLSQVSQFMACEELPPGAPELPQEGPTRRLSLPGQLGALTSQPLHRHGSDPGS
T4 sequence (P33261 whole entry, canonical isoform): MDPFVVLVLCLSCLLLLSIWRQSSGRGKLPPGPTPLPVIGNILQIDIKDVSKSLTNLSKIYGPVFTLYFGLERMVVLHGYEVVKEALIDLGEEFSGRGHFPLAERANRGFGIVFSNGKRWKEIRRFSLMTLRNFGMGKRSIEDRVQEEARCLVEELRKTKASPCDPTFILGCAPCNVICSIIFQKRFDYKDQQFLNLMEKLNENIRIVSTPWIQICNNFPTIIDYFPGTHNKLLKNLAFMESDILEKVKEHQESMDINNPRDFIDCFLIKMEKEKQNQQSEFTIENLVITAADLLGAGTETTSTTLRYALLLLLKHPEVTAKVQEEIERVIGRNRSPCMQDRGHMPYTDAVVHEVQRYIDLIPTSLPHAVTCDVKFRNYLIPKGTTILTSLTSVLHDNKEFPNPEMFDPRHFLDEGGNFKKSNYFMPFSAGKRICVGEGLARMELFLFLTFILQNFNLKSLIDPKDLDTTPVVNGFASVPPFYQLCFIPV
T2 sequence (P11712 whole entry, canonical isoform): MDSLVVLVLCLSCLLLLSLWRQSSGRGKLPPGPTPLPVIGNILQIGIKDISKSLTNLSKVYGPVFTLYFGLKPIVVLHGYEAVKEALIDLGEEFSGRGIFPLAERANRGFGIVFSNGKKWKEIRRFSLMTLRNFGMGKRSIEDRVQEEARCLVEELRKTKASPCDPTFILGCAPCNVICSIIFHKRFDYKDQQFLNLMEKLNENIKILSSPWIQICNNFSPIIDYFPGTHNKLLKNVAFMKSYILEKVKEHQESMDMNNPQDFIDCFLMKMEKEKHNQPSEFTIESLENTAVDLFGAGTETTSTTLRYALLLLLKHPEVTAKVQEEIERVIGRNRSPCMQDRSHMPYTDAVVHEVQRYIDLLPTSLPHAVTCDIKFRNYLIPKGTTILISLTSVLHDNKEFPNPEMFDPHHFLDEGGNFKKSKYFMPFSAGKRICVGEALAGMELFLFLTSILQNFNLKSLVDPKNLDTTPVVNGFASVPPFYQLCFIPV

Compound | inhibition at 50 µM [1] [%] | IC50 ([3]; read-out: CYP 3A4 IC50) [µM] | IC50 ([4]; read-out: CYP 2C19 IC50) [µM] | hERG IC50 [5] | CC50 at 72 h [6, 8] [µM] | CC50 at 72 h [6, 9] [µM] | IC50 ([7]; Homo sapiens, 786-0) [µM] | IC50 [1] | IC50 ([2]; read-out: CYP 2C9 IC50) [µM] | CC50 at 72 h [6, 10] [µM] | IC50 [5] [µM] | mitotox. IC50 [7] | also measured
Nc1nc2ccc(C(=O)NCCc3ccc(Cl)c(Cl)c3)cc2s1 [Compound 1a, 2-amino-N-(3,4-dichlorophenethyl)benzo[d]thiazole-6-carboxamide] | 21 ± 2 | 1 | 8.5 | max | > 50 | < 100 | 27.9 | – | – | – | – | – | CYP 2C9 IC50 [2]: max
Nc1nc2ccc(C(=O)N(CCc3ccc(Cl)c(Cl)c3)C3CC3)cc2s1 [Compound 1b, 2-amino-N-cyclopropyl-N-(3,4-dichlorophenethyl)benzo[d]thiazole-6-carboxamide] | 72 ± 4 | 0.7 | 4.7 | max | > 25 | < 50 | 0.6 | 39 µM and 38.9 µM | 5 | 25 to 50 | – | – | –
Nc1nc2ccc(C(=O)N(Cc3ccc(Cl)c(Cl)c3)C3CC3)cc2s1 [Compound 1c, 2-amino-N-cyclopropyl-N-(3,4-dichlorobenzyl)benzo[d]thiazole-6-carboxamide] | 26 ± 5 | 1.3 | 2.9 | max | – | – | 3.8 | – | 48.3 | > 100 | – | – | –
Nc1nc2ccc(CN(Cc3ccc(Cl)c(Cl)c3)C3CC3)cc2s1 [Compound 1d, 6-((cyclopropyl(3,4-dichlorobenzyl)amino)methyl)benzo[_d_]thiazol-2-amine] | 38 ± 4 | 4 | 1.2 | max | > 25 | < 50 | 1.5 | – | 8.8 | 25 to 50 | – | – | –
Nc1nc2ccc(C(=O)N(CCc3ccc(Cl)c(Cl)c3)c3ccccc3)cc2s1 [Compound 1e, 2-amino-N-(3,4-dichlorophenethyl)-N-phenylbenzo[d]thiazole-6-carboxamide] | 31 ± 2 | – | – | – | – | – | – | – | – | > 100 | – | – | activity at 10 µM ([2]; human, at 10 µM compound concentration, read-out: CYP 2C9 % residual activity): 35.3%; activity at 10 µM ([3]; human, at 10 µM compound concentration, read-out: CYP 3A4 % residual activity): 26.3%; activity at 10 µM ([4]; human, at 10 µM compound concentration, read-out: CYP 2C19 % residual activity): 31.1%; activity at 10 µM ([5]; human, at 10 µM compound concentration, read-out: hERG % residual activity): -34.8%; activity at 10 µM ([7]; Homo sapiens, 786-0, at 10 µM compound concentration, read-out: mitotox. % residual activity): -33.8%
Nc1nc2ccc(C(=O)NCCc3ccccc3)cc2s1 [Compound 2a, 2-amino-N-phenethylbenzo[d]thiazole-6-carboxamide] | 35 ± 1 | 19.9 | 25.6 | significant blocking of hERG channels | – | – | – | – | 37.7 | > 100 | 4.5 | max | –
Nc1nc2ccc(C(=O)NCCc3cccc(Cl)c3)cc2s1 [Compound 2b, 2-amino-N-(3-chlorophenethyl)benzo[d]thiazole-6-carboxamide] | 48 ± 2 | – | – | – | > 50 | < 100 | – | 91.4 µM | – | – | 2.8 | max | IC50 [2]: 35.2 µM; IC50 [3]: 6.5 µM; IC50 [4]: 6.3 µM
Nc1nc2ccc(C(=O)NCCc3ccc(Cl)cc3)cc2s1 [Compound 2c, 2-amino-N-(4-chlorophenethyl)benzo[d]thiazole-6-carboxamide] | 32 ± 2 | – | 4.2 | – | > 50 | < 100 | 40 | – | 9.6 | – | 4.5 | – | CYP 3A4 IC50 [3]: max
Nc1nc2ccc(C(=O)NCCc3cccc(Br)c3)cc2s1 [Compound 2d, 2-amino-N-(3-bromophenethyl)benzo[d]thiazole-6-carboxamide] | 57 ± 2 | 5.4 | 2.9 | – | > 50 | < 100 | – | – | 74.5 | – | 3.2 | max | –
Nc1nc2ccc(C(=O)NCCc3ccc(Br)cc3)cc2s1 [Compound 2e, 2-amino-N-(4-bromophenethyl)benzo[d]thiazole-6-carboxamide] | 33 ± 1 | 4.7 | 2.5 | – | > 25 | < 50 | 0.2 | 78.8 µM | 3.6 | – | 3.2 | mitotoxic | –
